Biological target: T1, Human M4 (Homo sapiens, UniProt P08173)
T1 construct: Human or rat M4 cDNA, along with the chimeric G protein Gq,5, were transfected into Chinese hamster ovary (CHO-K1) cells; expressed in transfected cells; host or cells: CHO-K1 (M4/Gqi5/CHO)
T1 sequence (P08173 1-479): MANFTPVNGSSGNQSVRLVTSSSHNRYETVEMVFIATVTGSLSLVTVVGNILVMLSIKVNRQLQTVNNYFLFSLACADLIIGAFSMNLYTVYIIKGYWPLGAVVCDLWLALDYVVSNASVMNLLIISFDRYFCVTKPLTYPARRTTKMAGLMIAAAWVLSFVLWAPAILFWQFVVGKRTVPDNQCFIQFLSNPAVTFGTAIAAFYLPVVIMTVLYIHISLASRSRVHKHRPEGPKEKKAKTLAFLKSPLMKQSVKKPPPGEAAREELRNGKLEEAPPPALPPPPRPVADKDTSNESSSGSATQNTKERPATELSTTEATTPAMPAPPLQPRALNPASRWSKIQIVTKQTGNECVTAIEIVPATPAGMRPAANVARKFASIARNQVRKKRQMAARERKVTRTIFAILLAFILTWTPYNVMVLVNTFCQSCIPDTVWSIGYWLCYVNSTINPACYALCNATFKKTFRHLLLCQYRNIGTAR
Assay: mAChR M4 cell-based functional assay (calcium flux, decrease of EC80 acetylcholine response)
Settings: for Human M4 Emin: % ACh maximum at 30 μM; for IC50: CHO-K1 cells with human M4 and Gqi5, EC80 acetylcholine
Experimental: Human or rat M4 cDNA, along with the chimeric G protein Gq,5, were transfected into Chinese hamster ovary (CHO-K1) cells purchased from the American Type Culture Collection using Lipofectamine2000. M4/Gqi5/CHO cells were grown in Ham's F-12 medium containing 10% heat-inactivated fetal bovine serum (FBS), 20 mM HEPES, 500 μg/mL G^418 sulfate, and 200 μg/mL Hygromycin B.
For high throughput measurement of agonist-evoked increases in intracellular calcium, CHO-K1 cells stably expressing muscarinic receptors were plated in growth medium lacking G418 and hygromycin at 15,000 cells/20 μL/well in Greiner 384-well black-walled, tissue culture (TC)-treated, clear-bottom plates (VWR). Cells were incubated overnight at 37° C. and 5% CO2. The next day, cells were washed using an ELX 405 (BioTek) with assay buffer; the final volume was then aspirated to 20 μL. Next, 20 μL of a 2.3 μM stock of Fluo-4/acetoxymethyl ester (Invitrogen, Carlsbad, Calif.), prepared as a 2.3 mM stock in DMSO and mixed in a 1:1 ratio with 10% (w/v) Pluronic F-127 and diluted in assay buffer, was added to the wells and the cell plates were incubated for 50 min at 37° C. and 5% CO2. Dye was removed by washing with the ELX 405 and the final volume was aspirated to 20 μL. Compound master plates were formatted in a 10 point concentration-response curve (CRC) format (1:3 dilutions) in 100% DMSO with a starting concentration of 10 or 1 mM using a BRAVO liquid handler (Agilent). Test compound CRCs were then transferred to daughter plates (240 nL) using the Echo acoustic plate reformatter (Labcyte, Sunnyvale, Calif.) and then diluted into assay buffer (40 μL) to a 2× stock using a Thermo Fisher Combi (Thermo Fisher Scientific, Waltham, Mass.).
Calcium flux was measured using the Functional Drug Screening System (FDSS) 6000 or 7000 (Hamamatsu Corporation, Tokyo, Japan) as an increase in the fluorescent static ratio. Compounds were applied to cells (20 μL, 2×) using the automated system of the FDSS at 2 seconds into the protocol and the data were collected at 1 Hz. At 143 s, 10 μL of an EC20 concentration of the muscarinic receptor agonist acetylcholine was added (5×), followed by the addition of […] of an EC80 concentration of acetylcholine at the 268 s time point (5×). Agonist activity was analyzed as a concentration-dependent increase in calcium mobilization upon compound addition. Positive allosteric modulator activity was analyzed as a concentration-dependent increase in the EC2o acetylcholine response. Antagonist activity was analyzed as a concentration-dependent decrease in the EC80 acetylcholine response; for the purposes of the tables herein, an IC50 (inhibitory concentration 50) was calculated as a concentration-dependent decrease of the response elicited by an EC80 concentration of acetylcholine. Concentration-response curves were generated using a four-parameter logistical equation in XLFit curve fitting software (IDBS, Bridgewater, N.J.) for Excel (Microsoft, Redmond, Wash.) or Prism (GraphPad Software, Inc., San Diego, Calif.) or the Dotmatics software platform (Dotmatics, Bishop's Stortford, UK).
Compounds were synthesized as described above. Activity (IC50 and Emin) was determined in the mAChR M4 cell-based functional assay as described above and the data are shown in Table 2.

Row | Compound | Human M4 Emin [%] | IC50 [nM]
1 | [2H]C([2H])([C@H]1CCCCO1)N1C[C@H]2C[C@H](Nc3ccc(-c4cc(F)cc(F)c4F)nn3)C[C@H]2C1 [Compound 40, (3aR,5s,6aS)-2-(((R)-tetrahydro-2H-pyran-2-yl)methyl-d2)-N-(6-(2,3,5-trifluorophenyl)pyridazin-3-yl)octahydrocyclopenta[c]pyrrol-5-amine] | 3 | 1.48
2 | COc1cccc(CN2C[C@H]3C[C@H](Nc4ccc(-c5cc(F)cc(F)c5F)nn4)C[C@H]3C2)n1 [Compound 17, (3aR,5s,6aS)-2-((6-methoxypyridin-2-yl)methyl)-N-(6-(2,3,5-trifluorophenyl)pyridazin-3-yl)octahydrocyclopenta[c]pyrrol-5-amine] | 2 | 57.1
3 | OC1(CN2C[C@H]3C[C@H](Nc4ccc(-c5cc(F)cc(F)c5F)nn4)C[C@H]3C2)CCCCCC1 [Compound 62] | 3 | 3300
4 | CC1(O)CC(CN2C[C@H]3C[C@H](Nc4ccc(-c5cc(F)cc(F)c5F)nn4)C[C@H]3C2)C1 (some centres unmarked) [Compound 52] | 3 | 17
5 | [2H]C([2H])(C1CCCOCC1)N1C[C@H]2C[C@H](Nc3ccc(-c4cc(F)cc(F)c4F)nn3)C[C@H]2C1 (stereo partly drawn) [Compound 78, (3aR,5s,6aS)-2-(oxepan-4-ylmethyl-d2)-N-(6-(2,3,5-trifluorophenyl)pyridazin-3-yl)octahydrocyclopenta[c]pyrrol-5-amine] | 2 | 1.2
6 | Cc1cccnc1CN1C[C@H]2C[C@H](Nc3ccc(-c4cc(F)cc(F)c4F)nn3)C[C@H]2C1 [Compound 23, (3aR,5s,6aS)-2-((3-methylpyridin-2-yl)methyl)-N-(6-(2,3,5-trifluorophenyl)pyridazin-3-yl)octahydrocyclopenta[c]pyrrol-5-amine] | 5 | 42.4
7 | Fc1cc(F)c(F)c(-c2ccc(N[C@H]3C[C@@H]4CN(CC5CC(F)(F)C5)C[C@@H]4C3)nn2)c1 [Compound 57, (3aR,5s,6aS)-2-((3,3-difluorocyclobutyl)methyl)-N-(6-(2,3,5-trifluorophenyl)pyridazin-3-yl)octahydrocyclopenta[c]pyrrol-5-amine] | 3 | 25
8 | [2H]C([2H])(CCOC)N1C[C@H]2C[C@H](Nc3ccc(-c4cc(F)cc(F)c4F)nn3)C[C@H]2C1 [Compound 80, (3aR,5s,6aS)-2-(3-methoxypropyl-1,1-d2)-N-(6-(2,3,5-trifluorophenyl)pyridazin-3-yl)octahydrocyclopenta[c]pyrrol-5-amine] | 8 | 4500
9 | [2H]C([2H])([C@H]1CCOC1)N1C[C@H]2C[C@H](Nc3ccc(-c4cc(F)cc(F)c4F)nn3)C[C@H]2C1 [Compound 41, (3aR,5s,6aS)-2-(((R)-tetrahydrofuran-3-yl)methyl-d2)-N-(6-(2,3,5-trifluorophenyl)pyridazin-3-yl)octahydrocyclopenta[c]pyrrol-5-amine] | 3 | 64.6
10 | [2H]C([2H])(C1CCOCC1(F)F)N1C[C@H]2C[C@H](Nc3ccc(-c4cc(F)cc(F)c4F)nn3)C[C@H]2C1 (stereo partly drawn) [Compound 93, (3aR,5s,6aS)-2-((3,3-difluorotetrahydro-2H-pyran-4-yl)methyl-d2)-N-(6-(2,3,5-trifluorophenyl)pyridazin-3-yl)octahydrocyclopenta[c]pyrrol-5-amine] | 3 | 3.9
11 | [2H]C([2H])([C@@H]1CCCCO1)N1C[C@H]2C[C@H](Nc3ccc(-c4cc(F)cc(F)c4F)nn3)C[C@H]2C1 [Compound 43, (3aR,5s,6aS)-2-(((S)-tetrahydro-2H-pyran-2-yl)methyl-d2)-N-(6-(2,3,5-trifluorophenyl)pyridazin-3-yl)octahydrocyclopenta[c]pyrrol-5-amine] | 4 | 0.95
12 | Fc1cc(F)c(F)c(-c2ccc(N[C@H]3C[C@@H]4CN(CC5CCCOC5)C[C@@H]4C3)nn2)c1 (single isomer, unassigned) [Compound 24] | 3 | 13.7
13 | C[C@]12C[C@H](Nc3ccc(-c4cc(F)cc(F)c4F)nn3)C[C@H]1CN(CC1CCOCC1)C2 (racemic) [Compound 88, (3aR,5S,6aS)-3a-methyl-2-((tetrahydro-2H-pyran-4-yl)methyl)-N-(6-(2,3,5-trifluorophenyl)pyridazin-3-yl)octahydrocyclopenta[c]pyrrol-5-amine and (3aS,5R,6aR)-3a-methyl-2-((tetrahydro-2H-pyran-4-yl)methyl)-N-(6-(2,3,5-trifluorophenyl)pyridazin-3-yl)octahydrocyclopenta[c]pyrrol-5-amine] | 17 | 1.2
14 | [2H]C([2H])([C@H]1[C@@H]2COC[C@@H]21)N1C[C@H]2C[C@H](Nc3ccc(-c4cc(F)cc(F)c4F)nn3)C[C@H]2C1 [Compound 76, (3aR,5s,6aS)-2-(((1R,58,6s)-3-oxabicyclo[3.1.0]hexan-6-yl)methyl-d2)-N-(6-(2,3,5-trifluorophenyl)pyridazin-3-yl)octahydrocyclopenta[c]pyrrol-5-amine] | 3 | 0.59
15 | CC(C)(O)CCN1C[C@H]2C[C@H](Nc3ccc(-c4cc(F)cc(F)c4F)nn3)C[C@H]2C1 [Compound 54, 2-methyl-4-((3aR,5s,6aS)-5-((6-(2,3,5-trifluorophenyl)pyridazin-3-yl)amino)hexahydrocyclopenta[c]pyrrol-2(1H)-yl)butan-2-ol] | 5 | 160
16 | Fc1cc(F)c(F)c(-c2ccc(N[C@H]3C[C@@H]4CN(CC5CCCCO5)C[C@@H]4C3)nn2)c1 (single isomer, unassigned) [Compound 27] | 4 | 2.14
17 | Fc1cc(F)c(F)c(-c2ccc(N[C@H]3C[C@@H]4CN(C[C@H]5CC6CCC5O6)C[C@@H]4C3)nn2)c1 (stereo partly drawn) [Compound 31, (3aR,5s,6aS)-2-(((2R)-7-oxabicyclo[2.2.1]heptan-2-yl)methyl)-N-(6-(2,3,5-trifluorophenyl)pyridazin-3-yl)octahydrocyclopenta[c]pyrrol-5-amine] | 3 | 1.47
18 | [2H]C([2H])([C@@H]1CC12CCOCC2)N1C[C@H]2C[C@H](Nc3ccc(-c4cc(F)cc(F)c4F)nn3)C[C@H]2C1 [Compound 77, (3aR,5s,6aS)-2-((6-oxaspiro[2.5]octan-1-yl)methyl-d2)-N-(6-(2,3,5-trifluorophenyl)pyridazin-3-yl)octahydrocyclopenta[c]pyrrol-5-amine] | 3 | 2.1
19 | [2H]C([2H])(CC1COC1)N1C[C@H]2C[C@H](Nc3ccc(-c4cc(F)cc(F)c4F)nn3)C[C@H]2C1 [Compound 85, (3aR,5s,6aS)-2-(2-(oxetan-3-yl)ethyl-1,1-d2)-N-(6-(2,3,5-trifluorophenyl)pyridazin-3-yl)octahydrocyclopenta[c]pyrrol-5-amine] | 4 | 66
